In patent publication US20150299219A1, “BICYCLIC PYRAZOLONE COMPOUNDS AND METHODS OF USE” (Calitor Sciences, LLC, priority 2014, published 2015):
pIC50: −log10 of the molar value.

Key:
[1] = Compound stability in human liver microsomes; format: in vitro ADME; conditions: for half-life: pH 7.4, 0.5 mg protein/mL; for half-life / T1/2: NADPH, 37° C.; for CLint scaled: pH 7.4, in vivo CLint extrapolated; for T1/2: 0.5 mg protein/mL
Protocol: Human or rat liver microsomes incubations were conducted in duplicate in polypropylene tubes. The typical incubation mixtures consisted of human or rat liver microsomes (0.5 mg protein/mL), compounds of interest (5 μM) and NADPH (1.0 mM) in a total volume of 200 μL potassium phosphate buffer (PBS, 100 mM, pH 7.4). Compounds were dissolved in DMSO and diluted with PBS such that the final concentration of DMSO was 0.05%. The enzymatic reactions were commenced with the addition of protein after a 3-min preincubation and incubated in a water bath open to the air at 37° C. Reactions were terminated at various time points (0, 5, 10, 15, 30, 60 min) by adding equal volume of ice-cold acetonitrile. The samples were stored at −80° C. until LC/MS/MS assays.
The concentrations of compounds in the incubation mixtures of human or rat liver microsomes were determined by a LC/MS/MS method. The ranges of the linearity in the concentration range were determined for each tested compounds.
A parallel incubation was performed using denatured microsomes as the negative control, and reactions were terminated at various time points (0, 15, 60 min) after incubation at 37° C.
Dextromethorphan (70 μM) was selected as the positive control, and reactions were terminated at various time points (0, 5, 10, 15, 30, 60 min) after incubation at 37° C. Both positive and negative control samples were included in each assay to ensure the integrity of the microsomal incubation system.
Alternatively, the stability of some of the compounds disclosed herein in human (or rat) liver microsomes were also conducted in the following protocol. The incubations were conducted in duplicate in polypropylene tubes. The typical incubation mixtures consisted of liver microsomes (final concentration: 0.5 mg protein/mL), compounds (final concentration: 1.5 μM) in a total volume of 30 μL K-buffer (contain 1.0 mM EDTA, 100 mM, pH7.4). Compounds were dissolved in DMSO and diluted with K-buffer such that the final concentration of DMSO was 0.2%. The enzymatic reactions were commenced with the addition of 15 μL of NADPH (final concentration: 2 mM) after 10 min preincubation and incubated in a 37° C. incubator. Reactions were terminated at various time points (0, 15, 30, 60 min) by adding 135 μL acetonitrile (contain IS). Protein is removed by centrifugation with 4000 rpm, 10 min. Supernatant was collected for LCMS/MS analysis
In the above protocol, ketanserin (1 μM) was selected as the positive control, and reactions were terminated at various time points (0, 15, 30, 60 min) after incubation at 37° C. The positive control sample was included in each assay to ensure the integrity of the microsomal incubation system.
The concentrations of compounds in human or rat liver microsome incubations were plotted as a percentage of the relevant zero time point control for each reaction. The in vivo CLint were extrapolated (ref: Naritomi, Y.; Terashita, S.; Kimura, S.; Suzuki, A.; Kagayama, A.; and Sugiyama, Y.; Prediction of human hepatic clearance from in vivo animal experiments and in vitro metabolic studies with liver microsomes from animals and humans. Drug Metab. Dispos., 2001, 29: 1316-1324).

c-Met (h) = molecular target: T1, c-Met (h) (Homo sapiens, UniProt P08581); assay: c-Met (h) kinase assay; format: biochemical
T1 construct: purchased Millipore UK Ltd
Protocol: Kinase assays can be performed by measurement of incorporation of γ-^33P ATP into immobilized myelin basic protein (MBP). High binding white 384 well plates (Greiner) are coated with MBP (Sigma #M-1891) by incubation of 60 μL/well of 20 μg/mL MBP in Tris-buffered saline (TBS; 50 mM Tris pH 8.0, 138 mM NaCl, 2.7 mM KCl) for 24 h at 4° C. Plates are washed 3× with 100 μL TBS. Kinase reactions are carried out in a total volume of 34 μL in kinase buffer (5 mM Hepes pH 7.6, 15 mM NaCl, 0.01% bovine gamma globulin (Sigma #I-5506), 10 mM MgCl2, 1 mM DTT, 0.02% TritonX-100). Compound dilutions are performed in DMSO and added to assay wells to a final DMSO concentration of 1%. Each data point is measured in duplicate, and at least two duplicate assays are performed for each individual compound determination. Enzyme is added to final concentrations of 10 nM or 20 nM, for example. A mixture of unlabeled ATP and γ-^33P ATP is added to start the reaction (2×10^6 cpm of γ-^33P ATP per well (3000 Ci/mmole) and 10 μM unlabeled ATP, typically. The reactions are carried out for 1 h at room temperature with shaking. Plates are washed 7× with TBS, followed by the addition of 50 μL/well scintillation fluid (Wallac). Plates are read using a Wallac Trilux counter. This is only one format of such assays; various other formats are possible, as known to one skilled in the art.
The above assay procedure can be used to determine the IC50 for inhibition and/or the inhibition constant, Ki. The IC50 is defined as the concentration of compound required to reduce the enzyme activity by 50% under the condition of the assay. The IC50 value is estimated by preparing a 10 point curve using a 1/2 log dilution series (for example, a typical curve may be prepared using the following compound concentrations: 10 μM, 3 μM, 1 μM, 0.3 μM, 0.1 μM, 0.03 μM, 0.01 μM, 0.003 μM, 0.001 μM and 0 μM).
Met (h) is incubated with 8 mM MOPS pH 7.0, 0.2 mM EDTA, 250 μM KKKSPGEYVNIEFG, 10 mM MgAcetate and [γ-^33P-ATP] (specific activity approx. 500 cpm/pmol, concentration as required). The reaction is initiated by the addition of the MgATP mix. After incubation for 40 minutes at room temperature, the reaction is stopped by the addition of 3% phosphoric acid solution. 10 μL of the reaction is then spotted onto a P30 filtermat and washed three times for 5 minutes in 75 mM phosphoric acid and once in methanol prior to drying and scintillation counting.
The kinase assays described herein were performed at Millipore UK Ltd, Dundee Technology Park, Dundee DD2 1SW, UK.

T1 sequence (P08581 25-1390): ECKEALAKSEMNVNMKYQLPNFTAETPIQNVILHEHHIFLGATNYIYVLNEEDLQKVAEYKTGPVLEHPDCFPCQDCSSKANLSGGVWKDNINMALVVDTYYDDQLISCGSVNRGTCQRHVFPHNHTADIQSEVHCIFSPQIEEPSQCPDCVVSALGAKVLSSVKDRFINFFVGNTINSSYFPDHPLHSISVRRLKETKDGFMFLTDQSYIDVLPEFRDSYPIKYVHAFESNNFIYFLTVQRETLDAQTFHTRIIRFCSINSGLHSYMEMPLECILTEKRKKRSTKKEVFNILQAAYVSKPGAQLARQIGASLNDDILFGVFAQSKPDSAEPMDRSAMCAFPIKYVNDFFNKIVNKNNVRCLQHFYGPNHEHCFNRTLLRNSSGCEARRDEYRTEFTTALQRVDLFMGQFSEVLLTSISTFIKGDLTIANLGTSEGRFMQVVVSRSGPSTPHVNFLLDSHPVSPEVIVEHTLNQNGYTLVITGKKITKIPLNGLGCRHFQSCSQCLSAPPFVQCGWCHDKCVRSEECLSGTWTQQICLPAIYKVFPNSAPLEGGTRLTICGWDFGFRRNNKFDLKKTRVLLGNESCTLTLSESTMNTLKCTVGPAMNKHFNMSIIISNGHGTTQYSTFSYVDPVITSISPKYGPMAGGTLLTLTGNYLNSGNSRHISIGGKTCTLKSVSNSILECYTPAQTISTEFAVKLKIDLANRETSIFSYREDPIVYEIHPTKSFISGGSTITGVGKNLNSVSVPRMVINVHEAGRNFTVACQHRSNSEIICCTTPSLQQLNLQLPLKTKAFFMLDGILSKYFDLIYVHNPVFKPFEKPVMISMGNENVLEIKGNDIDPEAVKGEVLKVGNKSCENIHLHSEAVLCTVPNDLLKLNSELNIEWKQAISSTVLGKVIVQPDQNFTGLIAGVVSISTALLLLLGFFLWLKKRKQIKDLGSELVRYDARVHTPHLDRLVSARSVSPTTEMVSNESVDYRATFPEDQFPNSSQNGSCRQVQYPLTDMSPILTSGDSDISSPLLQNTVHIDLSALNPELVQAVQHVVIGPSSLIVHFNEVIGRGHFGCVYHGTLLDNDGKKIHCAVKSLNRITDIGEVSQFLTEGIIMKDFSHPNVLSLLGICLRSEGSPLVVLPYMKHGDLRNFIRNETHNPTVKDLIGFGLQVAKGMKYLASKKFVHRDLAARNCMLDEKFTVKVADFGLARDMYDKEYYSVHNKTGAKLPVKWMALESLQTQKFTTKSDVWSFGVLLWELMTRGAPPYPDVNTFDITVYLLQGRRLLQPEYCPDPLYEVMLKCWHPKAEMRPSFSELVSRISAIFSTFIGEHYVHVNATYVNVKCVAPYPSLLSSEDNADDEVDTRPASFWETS

SMILES | half-life [1] [h] | CLint scaled [1] [mL/min/kg] | pIC50 (c-Met (h)) | T1/2 [1]
O=C(Nc1ccc(Oc2ccnc(NC(=O)C3CC3)c2)cc1)c1c2n(n(-c3ccccc3)c1=O)CCC2 [Ex. 2, N-(4-((2-(cyclopropanecarboxamido)pyridin-4-yl)oxy)phenyl)-2-oxo-1-phenyl-2,4,5,6-tetrahydro-1H-pyrrolo[1,2-b]pyrazole-3-carboxamide] | 4.07 | 7.13 | 7.59 | –
CC(=O)Nc1cc(Oc2ccc(NC(=O)c3c4n(n(-c5ccccc5)c3=O)CCOC4)nc2)ccn1 [Ex. 12, N-(5-((2-acetamidopyridin-4-yl)oxy)pyridin-2-yl)-2-oxo-1-phenyl-2,4,6,7-tetrahydro-1H-pyrazolo[5,1-c][1,4]oxazine-3-carboxamide] | – | – | 7.27 | ∞
O=C(Nc1ccc(Oc2ccnc(NC(=O)C3CC3)c2)cn1)c1c2n(n(-c3ccccc3)c1=O)CCC2 [Ex. 14, N-(5-((2-(cyclopropanecarboxamido)pyridin-4-yl)oxy)pyridin-2-yl)-2-oxo-1-phenyl-2,4,5,6-tetrahydro-1H-pyrrolo[1,2-b]pyrazole-3-carboxamide] | 8.47 | 3.42 | 7.68 | –

Next, values leading:

half-life [1] [h] | CLint scaled [1] [mL/min/kg] | pIC50 (c-Met (h)) | T1/2 [1] | SMILES
32.2 | 0.9 | 7.00 | – | CC(=O)Nc1cc(Oc2ccc(NC(=O)c3c4n(n(-c5ccccc5)c3=O)CCC4)cc2)ccn1 [Ex. 3, N-(4-((2-acetamidopyridin-4-yl)oxy)phenyl)-2-oxo-1-phenyl-2,4,5,6-tetrahydro-1H-pyrrolo[1,2-b]pyrazole-3-carboxamide]
– | – | 7.39 | ∞ | O=C(Nc1ccc(Oc2ccnc(NC(=O)C3CC3)c2)cc1)c1c2n(n(-c3ccccc3)c1=O)CCOC2 [Ex. 19, N-(4-((2-(cyclopropanecarboxamido)pyridin-4-yl)oxy)phenyl)-2-oxo-1-phenyl-2,4,6,7-tetrahydro-1H-pyrazolo[5,1-c][1,4]oxazine-3-carboxamide]
